Values of other authors as cited in patent publication US9314524B2, “Topical formulations of Flucytosine” (priority 2007, dated 2016).

Tests used:
[1] = system: 227 clinical yeast isolates; details: for cross-resistance in fluconazole/itraconazole resistant C. albicans isolates: polyene antibiotics
[2] = human, in vivo
[3] = system: Candida tropicalis; details: 70 Candida tropicalis strains
[4] = system: C. tropicalis; details: 200-mg for 14 days, second line, 3 patients treated
[5] = system: Candida albicans; details: 342 Candida albicans strains
[6] = system: C. albicans; details: yeasts from 104 patients with vulvovaginal candidiasis
[7] = system: Candida glabrata; details: 68 Candida glabrata strains
[8] = system: Candida parapsilosis; details: 65 Candida parapsilosis strains
[9] = system: C. glabrata; details: 600-mg day for 2 to 3 weeks

C[C@@H]1[C@H](O)[C@@H](C)/C=C/C=C/CC/C=C/C=C/C=C/C=C/C(O[C@H]2O[C@H](C)[C@@H](O)[C@H](N)[C@@H]2O)CC2O[C@](O)(CC(O)C(O)CCC(O)CC(O)CC(O)CC(=O)O[C@H]1C)CC(O)C2C(=O)O (stereo partly drawn) [nystatin]
cross-resistance in fluconazole/itraconazole resistant C. albicans isolates [1]: no cross-resistance

C[C@@H]1[C@H](O)[C@@H](C)/C=C/C=C/C=C/C=C/C=C/C=C/C=C/[C@H](O[C@@H]2O[C@H](C)[C@@H](O)[C@H](N)[C@@H]2O)C[C@@H]2O[C@](O)(C[C@@H](O)C[C@@H](O)[C@H](O)CC[C@@H](O)C[C@@H](O)CC(=O)O[C@H]1C)C[C@H](O)[C@H]2C(=O)O [amphotericin B]
cross-resistance in fluconazole/itraconazole resistant C. albicans isolates [1]: no cross-resistance

Nc1nc(=O)[nH]cc1F [flucytosine, 4-amino-5-fluoropyrimidin-2(1H)-one]
plasma level that led to bone marrow depression and hepatotoxicity [2]: greater than 100 mg/L

CC(=O)N1CCN(c2ccc(OCC3COC(Cn4ccnc4)(c4ccc(Cl)cc4Cl)O3)cc2)CC1 (stereo not drawn) [ketoconazole]
isolates resistant [3]: 2.9% | patients in whom the infection recurred [4]: three

OC(Cn1cncn1)(Cn1cncn1)c1ccc(F)cc1F [fluconazole]
isolates showing resistance [5]: 7.6% | resistant C. albicans isolated, share of cases [6]: 13.46% | yeast strains resistant ([1]; 227 vaginal clinical yeast isolates): thirteen | isolates demonstrating resistance [7]: 10.3% | isolates demonstrating resistance [8]: 4.6%

OB(O)O [boric acid]
clinical and mycological success [9]: 64% | clinical and mycological success, symptomatic women [9]: 47 of 73
